Results on 8 compounds are retold here after patent publication US20050191294A1, “Compositions and methods of use of targeting peptides for diagnosis and therapy” (Board of Regents, The University of Texas System, priority 2003, published 2005).

Series [1] relates to wild-type mice obese due to old age. Description: Treatment of age-related obesity in regular diet-fed wild-type mice. Type of series: in vivo, mouse. As to the method: Fat resorption and metabolic analysis. […] Tissue lipids were measured as described.
The test system of series [2] is diet-induced obese C57BL/6 mice. Description: Fat resorption and metabolic analysis in diet-induced obese mice. Particulars: 4 weeks of treatment.
Excerpt: Apoptosis was detected by using standard TUNEL immunohistochemistry.
Fat resorption and metabolic analysis. High-calorie diet for obesity induction (TD97366: 25.4% fat, 21.79% protein, 38.41% carbohydrate) was purchased from Harlan Teklad. […] Stocks of [sequence] (SEQ ID NO:4)-GG-D(KLAKLAK)2 (SEQ ID NO:11), [sequence] (SEQ ID NO:10)-GG-D(KLAKLAK)2 (SEQ ID NO:11), D(KLAKLAK)2, CARAC (SEQ ID NO:9)-GG-D(KLAKLAK)2 (SEQ ID NO:11), and [sequence] (SEQ ID NO:4) chemically synthesized, cyclized, and HPLC-purified to 99% purity (AnaSpec) were prepared by dissolving lyophilized peptides in DMSO to a concentration of 65 mM. […] Mouse weight, body temperature, and food and water consumption were monitored weekly. Tissue lipids were measured as described. […] Oxygen consumption and heat generation of fasting mice were measured for 24 h by indirect calorimetry with OXYMAX (Columbus Instruments, Columbus, Ohio). To quantify spontaneous activity, 8 mice (2 mice per cage) were placed in automated photocell activity cages (AccuScan Instruments, Columbus, Ohio). […] Horizontal locomotor activity was computer-monitored as the number of infrared beam breaks, which were detected for the period of 1 h and recorded every hour for the duration of the test (14 h) by using a Versamax Analyser. […]
Another series deals with DU145 cells. Put plainly: Cell apoptosis assay (Annexin-V staining), DU145. Type of series: cell-based, human. The settings on record: DU145, 30 μM, 6 hours. From the text: Cell apoptosis assays. Peptides were synthesized to our specifications at greater than 95% purity (Genemed Synthesis Inc., San Francisco, Calif.). Apoptosis was induced with a pro-apoptotic motif D(KLAKLAK)2 that disrupts mitochondrial membranes and is inert to eukaryotic plasma membranes. An equimolar concentration of the targeted [(WIFPWIQL (SEQ ID NO:6)-GG-D(KLAKLAK)2 (SEQ ID NO:11) and WDLAWMFRLPVG (SEQ ID NO:7)-GG-D(KLAKLAK)2) (SEQ ID NO:11)] and untargeted [(WIFPWIQL (SEQ ID NO:6)-+(KLAKLAK)2 (SEQ ID NO:11) and WDLAWMFRLPVG (SEQ ID NO:7)-+(KLAKLAK)2 (SEQ ID NO:11)] peptides was used. Human prostate cancer-derived DU 145 cells were grown in tissue chamber slides (Lab-Tek II Chamber Slide System; Nalge Nunc International Corp., Naperville, Ill.). Cells were washed with PBS and incubated with 30 μM (in 300 μl DMEM supplemented with 10% FBS, penicillin and streptomycin) of the targeted and untargeted peptides for 6 hours. Pure DMEM was used as an internal negative control. Apoptosis was detected with the Annexin-V-FLUOS Staining kit (Roche, Manheim, Germany) according to the manufacturer's instructions.

Series [3] relates to LNCaP cells. Description: Cell apoptosis assay (Annexin-V staining), LnCap. The series is classed as cell-based, human. Particulars: LnCap (data not shown).
The test system of series [4] is DU145-derived human prostate carcinoma xenografts. Put plainly: Targeted treatment of nude mice bearing DU145 human prostate carcinoma xenografts. The settings on record: 300 μg/week per mouse i.v.; controls vehicle and equimolar unconjugated mixtures; P<0.001. The series is classed as in vivo. As to the method: Establishment of mice bearing human tumor xenografts. Male athymic nu/nu (nude) mice were obtained commercially from Harlan-Sprague-Dawley (Indianapolis, Ind.). Human prostate cancer xenografts were established by injection of DU 145 cells (10^6 cells in a 200 μl DMEM) in the subcutaneous tissue of 2 months old male nude mice.
Targeted treatment ofnude mice bearing human prostate carcinoma xenografts. DU145-derived tumor xenografts were established in male nude mice as described above. GRP78-targeting peptides used for therapy were coupled to the pro-apoptotic motif D(KLAKLAK)2 ([…]) and controls were treated with an equimolar concentration of the GRP78-targeting peptides and the pro-apoptotic motif. Mice were divided into groups of seven animals and treatment started when mean tumor volume for each group was around 200 mm^3. Two-dimensional measurements of tumors were made by caliper on anesthetized mice, and were used to calculate tumor volume. […]
Statistical analysis. Experiments are expressed as mean±standard errors of the means (SEM) of triplicate plates and analyzed by using the two-tailed Student's t test (t test). Tumor volumes were calculated individually for each mouse throughout the study and results are also expressed as mean±SEM for all the groups.
On the technique in general: In xenograft studies the graft and the host belong to different species.

The next series relates to white fat vasculature. Description: In vivo homing of fitc-peptides in wild-type mice. Set-up: species or system mouse.
Series [5] deals with LNCaP cells. Description: Induction of apoptosis, WST-1 cell viability assay, LNCaP. Particulars: 10-100 μM, 24-72 hours. Type of series: cell-based, human. The protocol:
(§1) Induction and Quantification of Apoptosis with […] (SEQ ID NO:1)-GG-D(KLAKLAK)2 (SEQ ID NO:11) Synthetic Peptide. Soluble […] (SEQ ID NO:1)-GG-D(KLAKLAK)2 (SEQ ID NO:11), […] […] The unrelated control peptide […] (SEQ ID NO:5)-GG-D(KLAKLAK)2 (SEQ ID NO:11) was synthesized by Genemed Synthesis, Inc. (South San Francisco, Calif.). LNCaP, MDA-PCa-2b cells (each at 3×10^4 per well), and EF43fgf-4 cells (7) at 2×10^4 per well were seeded in triplicates and incubated in 96-well plates (Becton Dickinson, Franklin Lakes, N.J.) for 24-72 hours at 37° C., with serially increasing concentrations (10-100 μM) of […] (SEQ ID NO:1))-GG-D(KLAKLAK)2 (SEQ ID NO:11) peptide, […] (SEQ ID NO:1)-peptide alone, D(KLAKLAK)2 (SEQ ID NO:11) peptide alone, or an equimolar mixture of the unconjugated peptides […] […] LNCaP cells were also exposed in parallel to increasing concentrations (20-100 μM) of […] (SEQ ID NO:1)-GG-D(KLAKLAK)2 (SEQ ID NO:11) and unrelated control peptides […] (SEQ ID NO:4)-GG-D(KLAKLAK)2 (SEQ ID NO:11) or […] (SEQ ID NO:5)-GG-D(KLAKLAK)2 (SEQ ID NO:11), under the same conditions. […] (SEQ ID NO:1)-GG-D(LAKLAK)2 (SEQ ID NO:11) peptide for 3 hours. Response was evaluated by a cell viability assay (WST-1; Roche, Mannheim, Germany).
(Tetrazolium assays rely on reduction of a dye to a coloured formazan, in cell work by metabolically active cells.)

The test system of the next series is MDA-PCa-2b cells. Description: Induction of apoptosis, WST-1 cell viability assay, MDA-PCa-2b. The series is classed as cell-based, human. Particulars: 10-100 μM, 24-72 hours. As to the method: as §1
A further series addresses T1, recombinant GRP78 (Mesocricetus auratus, UniProt P07823).
T1 construct: purchased Stressgen, Victoria, Canada
Put plainly: In vitro phage binding assay on immobilized GRP78. The settings on record: increasing concentrations of synthetic peptide against the corresponding phage. As to the method:
In vitro phage binding assays. GRP78, HSP70, HSP90 (all from Stressgen, Victoria, Canada) and bovine serum albumin (BSA) were immobilized on microtiter wells of 96-well plates overnight at 4° C. Wells were washed twice with phosphate-buffered saline (PBS), blocked with PBS containing 3% BSA for 1 hour at room temperature (RT), and incubated with 10^9 transducing units (TU) of WIFPWIQL (SEQ ID NO:6)-phage, WDLAWMFRLPVG (SEQ ID NO:7)-phage, or insertless control phage (Fd-tet) in 50 μl of PBS containing 1.5% BSA. After 2 hours at RT, wells were washed with PBS, and bound phage were recovered by infection with host bacteria (log-phase Escherichia coli K91 kan; OD600≈2). Aliquots of the bacterial culture were plated onto Luria-Bertani broth (LB) agar plates supplemented with 40 μg/ml tetracycline and 100 μg/ml kanamycin. Plates were incubated overnight at 37° C., and phage TU were counted in triplicate plates. Increasing concentrations of synthetic peptides WIFPWIQL (SEQ ID NO:6), WDLAWMFRLPVG (SEQ ID NO:7)-, and an unrelated control peptide CARAC (SEQ ID NO:9) (Genemed Synthesis Inc., San Francisco, Calif.) were used to evaluate competitive inhibition of phage binding. All peptides were solubilized in a standard stock solution of 10% dimethylsulfoxide (DMSO) and diluted to working concentrations for the assays.

Where a SMILES comes first, the peptide text is derived from it. Bridges are numbered along the chain shown (N, C = ends). Primed or numbered codes have the meaning given here. Where no end group is shown, it is not given here. [ ]: non-standard residue; d: D form. FITC′ = not defined here

T1 sequence (P07823 19-654): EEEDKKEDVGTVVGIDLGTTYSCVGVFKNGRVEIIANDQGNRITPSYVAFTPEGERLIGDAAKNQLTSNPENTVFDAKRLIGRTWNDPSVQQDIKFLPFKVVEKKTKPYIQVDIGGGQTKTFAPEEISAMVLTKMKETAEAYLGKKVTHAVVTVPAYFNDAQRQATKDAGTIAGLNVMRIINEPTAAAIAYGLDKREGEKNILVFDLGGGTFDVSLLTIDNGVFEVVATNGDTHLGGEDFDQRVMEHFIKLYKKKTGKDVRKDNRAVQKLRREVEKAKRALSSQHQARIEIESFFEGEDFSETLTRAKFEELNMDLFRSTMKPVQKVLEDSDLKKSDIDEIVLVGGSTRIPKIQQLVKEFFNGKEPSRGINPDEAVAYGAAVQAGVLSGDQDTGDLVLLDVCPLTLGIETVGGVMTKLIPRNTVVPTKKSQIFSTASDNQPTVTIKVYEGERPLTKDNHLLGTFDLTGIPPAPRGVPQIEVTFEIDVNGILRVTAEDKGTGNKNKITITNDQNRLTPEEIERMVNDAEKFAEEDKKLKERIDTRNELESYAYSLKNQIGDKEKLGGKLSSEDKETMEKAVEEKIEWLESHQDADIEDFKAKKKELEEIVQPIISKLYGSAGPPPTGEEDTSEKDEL

As for `CC(C)C[C@@H](NC(=O)[C@@H](CCCCN)NC(=O)CNC(=O)CNC(=O)[C@@H]1CSSC[C@H](N)C(=O)N[C@@H](CCCCN)C(=O)NCC(=O)NCC(=O)N[C@@H](CCCNC(=N)N)C(=O)N[C@@H](C)C(=O)N[C@@H](CCCCN)C(=O)N[C@@H](CC(=O)O)C(=O)N1)C(=O)N[C@H](C)C(=O)N[C@H](CCCCN)C(=O)N[C@H](CC(C)C)C(=O)N[C@H](C)C(=O)N[C@H](CCCCN)C(=O)N[C@H](CCCCN)C(=O)N[C@H](CC(C)C)C(=O)N[C@H](C)C(=O)N[C@H](CCCCN)C(=O)N[C@H](CC(C)C)C(=O)N[C@H](C)C(=O)N[C@H](CCCCN)C(=O)O` (H-CKGGRAKDCGG[dK][dL][dA][dK][dL][dA][dK][dK][dL][dA][dK][dL][dA][dK]-OH; disulfide 1-9), in series [1], the toxicity result was “without detectable toxicity”. Further, in series [2], the “apoptosis and appearance of control organs such as liver” value was “apoptosis was not detected in the control tissues”.
On to “WIFPWIQL (SEQ ID NO:6)-GG-D(KLAKLAK)2 (SEQ ID NO:11): GRP78-targeted pro-apoptotic peptide (WIFPWIQLGG[dK][dL][dA][dK][dL][dA][dK][dK][dL][dA][dK][dL][dA][dK])”, for which the “toxicity / apoptosis (Annexin-V staining)” value in the series on DU145 cells and in the series on LNCaP cells [3] was “induced apoptosis” in each case. In addition, in [4], the “mean tumor volume relative to the controls” value is given as “significantly smaller”.
Take “CKGGRAKDC (SEQ ID NO:4)-fitc: soluble CKGGRAKDC peptide linked to fluorescein (fitc) at its C-terminus (CKGGRAKDC-{FITC′}; also: cyclized, bridge type not given here)”: in the series with white fat vasculature (mouse, in vivo), the “presence in isolated ex-vivo blood vessels from white fat tissue” value is “presence”. In addition, the “detection in white fat vasculature” value in the series on white fat vasculature (wild-type C57BL/6 mice, i.v., 5 min prior to tissue collection) was “specifically localized to and was internalized by blood vessels of subcutaneous and peritoneal white fat”. Besides, the “homing to blood vessels of brown fat, liver and other control organs” value with white fat vasculature (wild-type mice, i.v.) is recorded as “no CKGGRAKDC (SEQ ID NO:4)-fitc homing was observed”.
Take “CGRRAGGSC (SEQ ID NO:1): soluble IL-11-mimic peptide alone, used as control”: the “programmed cell death / toxic effect (WST-1 cell viability)” value in the series on LNCaP cells [5] and in the series with MDA-PCa-2b cells was “no measurable toxic effects” each time.
With “WDLAWMFRLPVG (SEQ ID NO:7): synthetic GRP78-binding peptide”, the “inhibition of phage binding to GRP78 by synthetic peptide” value in the series with recombinant GRP78 was “inhibit binding of the corresponding phage in a dose-dependent manner”.
For the compound “WIFPWIQL (SEQ ID NO:6): synthetic GRP78-binding peptide”, the “inhibition of phage binding to GRP78 by synthetic peptide” value with recombinant GRP78 is “inhibit binding of the corresponding phage in a dose-dependent manner”.
With “D(KLAKLAK)2 (SEQ ID NO:11): amphipathic, α-helix-forming anti-microbial pro-apoptotic peptide KLAKLAKKLAKLAK (D-amino acids) [reference compound]”, the “programmed cell death / toxic effect (WST-1 cell viability)” value in the series with LNCaP cells [5] and in the series with MDA-PCa-2b cells was “no measurable toxic effects” each time.
In the case of “WDLAWMFRLPVG (SEQ ID NO:7)-GG-D(KLAKLAK)2 (SEQ ID NO:11): GRP78-targeted pro-apoptotic peptide (WDLAWMFRLPVGGG[dK][dL][dA][dK][dL][dA][dK][dK][dL][dA][dK][dL][dA][dK])”, the “toxicity / apoptosis (Annexin-V staining)” value in the series with DU145 cells and with LNCaP cells [3] was “induced apoptosis” throughout. In series [4], the “mean tumor volume relative to the controls” value was “significantly smaller”.
